{
  "source": "patent US11390604B2",
  "about": "(Hoffmann-La Roche Inc., priority 2019, dated 2022)",
  "note": "Structures can show the parent of a compound that is named as a salt.",
  "data": [
    {"system": "Acinetobacter baumannii ATCC 17961", "test": "Antimicrobial susceptibility testing: 90% growth inhibitory concentration (IC90) determination", "assay_type": "cell-based", "details": "ATCC17961, Acinetobacter baumannii ATCC 17961, Iso-Sensitest broth, read-out: ATCC 17961 IC90", "summary_of_the_method": "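Broth microdilution in Iso-Sensitest medium, twofold series (e.g. 50 to 0.097 μM final), ~5×10^5 CFU/ml inoculum, 35±2 °C. OD600 read every 20 min over 16 h. IC90 derived from growth inhibition during logarithmic phase.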", "units": {"IC90": "nM"}, "values": [
      {"smiles": "Cn1c(-c2cn(C3CC3)nc2C(F)(F)F)cnc1C(=O)Nc1ccc(C(=O)N2CCN(C(=O)N[C@@H]3CC[C@@H](N)C3)CC2)c(Cl)c1", "note": "[Example 232, N-((1R,3R)-3-aminocyclopentyl)-4-(2-chloro-4-(5-(1-cyclopropyl-3-(trifluoromethyl)-1H-pyrazol-4-yl)-1-methyl-1H-imidazole-2-carboxamido)benzoyl)piperazine-1-carboxamide formate]", "IC90": 267},
      {"smiles": "CCc1cc(NC(=O)c2ncc(-c3cn(CC#N)nc3C(F)(F)F)n2C)ccc1C(=O)N1CCN(C(=O)N2CCNC(C)C2)CC1", "note": "(centres unmarked) [Example 135, 5-[1-(cyanomethyl)-3-(trifluoromethyl)pyrazol-4-yl]-N-[3-ethyl-4-[4-(3-methylpiperazine-1-carbonyl)piperazine-1-carbonyl]phenyl]-1-methylimidazole-2-carboxamide;formic acid]", "IC90": 885},
      {"smiles": "C#CCn1cc(-c2cnc(C(=O)Nc3ccc(C(=O)N4CCN(C(=O)[C@@H]5C[C@@H](O)CN5)CC4)c(Cl)c3)n2C)c(C(F)(F)F)n1", "note": "[Example 36, N-[3-Chloro-4-[4-[(2S,4R)-4-hydroxypyrrolidine-2-carbonyl]piperazine-1-carbonyl]phenyl]-1-methyl-5-[1-prop-2-ynyl-3-(trifluoromethyl)pyrazol-4-yl]imidazole-2-carboxamide hydrochloride]", "IC90": 286},
      {"smiles": "Cn1c(-c2cn(CC#N)nc2C(F)(F)F)cnc1C(=O)Nc1ccc(C(=O)N2CCN(C(=O)[C@H]3C[C@@H](N)C3)CC2)c(Cl)c1", "note": "[Example 73, N-[4-[4-(3-aminocyclobutanecarbonyl)piperazine-1-carbonyl]-3-chlorophenyl]-5-[1-(cyanomethyl)-3-(trifluoromethyl)pyrazol-4-yl]-1-methylimidazole-2-carboxamide;2,2,2-trifluoroacetic acid]", "IC90": 2550},
      {"smiles": "C#CCn1cc(-c2cnc(C(=O)Nc3ccc(C(=O)N4CCN(C(=O)[C@H]5[C@@H]6CNC[C@@H]65)CC4)c(Cl)c3)n2C)c(C(F)(F)F)n1", "note": "[Example 92, N-[3-chloro-4-[4-[rac-(1R,5S)-3-azabicyclo[3.1.0]hexane-6-carbonyl]piperazine-1-carbonyl]phenyl]-1-methyl-5-[1-prop-2-ynyl-3-(trifluoromethyl)pyrazol-4-yl]imidazole-2-carboxamide;hydrochloride]", "IC90": 103},
      {"smiles": "Cn1c(-c2cn(C3CC3(F)F)nc2C(F)(F)F)cnc1C(=O)Nc1ccc(C(=O)N2CC3C(N)C3C2)c(Cl)c1", "note": "(centres unmarked) [Example 212, N-(4-(6-amino-3-azabicyclo[3.1.0]hexane-3-carbonyl)-3-chlorophenyl)-5-(1-(2,2-difluorocyclopropyl)-3-(trifluoromethyl)-1H-pyrazol-4-yl)-1-methyl-1H-imidazole-2-carboxamide formate]", "IC90": 235},
      {"smiles": "Cc1nc(Cn2cc(-c3cnc(C(=O)Nc4ccc(C(=O)N5CCN(C(=O)C6CCNCC6)CC5)c(Cl)c4)n3C)c(C(F)(F)F)n2)no1", "note": "[Example 106, N-[3-chloro-4-[4-(piperidine-4-carbonyl)piperazine-1-carbonyl]phenyl]-1-methyl-5-[1-[(5-methyl-1,2,4-oxadiazol-3-yl)methyl]-3-(trifluoromethyl)pyrazol-4-yl]imidazole-2-carboxamide;hydrochloride]", "IC90": 848},
      {"smiles": "CCc1cc(NC(=O)c2ncc(-c3cn(CC#N)nc3C(F)(F)F)n2C)ccc1C(=O)NCCOCC(C)(C)N", "note": "[Example 170, N-(4-((2-(2-amino-2-methylpropoxy)ethyl)carbamoyl)-3-ethylphenyl)-5-(1-(cyanomethyl)-3-(trifluoromethyl)-1H-pyrazol-4-yl)-1-methyl-1H-imidazole-2-carboxamide]", "IC90": 234}
    ]}
  ]
}
